Target: T1, BTK (Homo sapiens, UniProt Q06187)
T1 construct: purchased Upstate 14-552
Assay: In vitro BTK kinase assay: BTK-POLYGAT-LS ASSAY
Type: biochemical
Conditions: ATP 10 uM
How it was run: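 BTK phosphorylation of polyGAT (100 nM final) with ATP at 10 μM final, 10 mM Tris-HCl pH 7.5 kinase buffer, quenched by EDTA after 30 min. Potency given as IC50.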

T1 sequence (Q06187 whole entry): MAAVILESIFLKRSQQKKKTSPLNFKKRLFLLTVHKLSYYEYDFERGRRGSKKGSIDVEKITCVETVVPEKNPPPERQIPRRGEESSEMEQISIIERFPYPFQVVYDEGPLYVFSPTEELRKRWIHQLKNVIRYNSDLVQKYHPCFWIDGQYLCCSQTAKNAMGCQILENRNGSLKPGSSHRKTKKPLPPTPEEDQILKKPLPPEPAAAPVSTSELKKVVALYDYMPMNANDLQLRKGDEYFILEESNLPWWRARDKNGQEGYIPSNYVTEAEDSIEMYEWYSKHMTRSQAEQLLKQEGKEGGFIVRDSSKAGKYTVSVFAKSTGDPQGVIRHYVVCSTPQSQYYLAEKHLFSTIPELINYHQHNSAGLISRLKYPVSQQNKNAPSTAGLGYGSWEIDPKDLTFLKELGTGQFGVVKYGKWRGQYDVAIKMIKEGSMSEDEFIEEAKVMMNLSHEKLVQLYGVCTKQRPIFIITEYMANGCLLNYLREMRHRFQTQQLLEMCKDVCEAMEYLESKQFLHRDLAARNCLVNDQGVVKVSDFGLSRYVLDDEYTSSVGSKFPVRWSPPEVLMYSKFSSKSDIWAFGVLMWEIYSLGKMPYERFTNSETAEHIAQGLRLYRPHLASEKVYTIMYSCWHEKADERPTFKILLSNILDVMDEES

| Compound | IC50 |
| --- | --- |
| O=C(N[C@@H]1CCCN(c2ncnc3[nH]ccc23)C1)[C@H](Nc1ccccc1)c1ccccc1 [Example 106, (R)—N—((R)-1-(7H-pyrrolo[2,3-d]pyrimidin-4-yl)piperidin-3-yl)-2-phenyl-2-(phenylamino)acetamide] | > 10 µM |
| O=C(N[C@@H]1CCCN(c2ncnc3[nH]ccc23)C1)[C@H](Nc1cc(F)cc(F)c1)C1CC1 [Example 120, (R)—N—((R)-1-(7H-pyrrolo[2,3-d]pyrimidin-4-yl)piperidin-3-yl)-2-cyclopropyl-2-(3,5-difluorophenylamino)acetamide] | < 0.1 µM |
| O=C(N[C@@H]1CCCN(c2ncnc3[nH]ccc23)C1)[C@H](Nc1cc(F)cc(C(F)(F)F)c1)C1CC1 [Example 121, (R)—N—((R)-1-(7H-pyrrolo[2,3-d]pyrimidin-4-yl)piperidin-3-yl)-2-cyclopropyl-2-(3-fluoro-5-(trifluoromethyl)phenylamino)acetamide] | < 0.1 µM |
| O=C(CNc1cccc(Cl)c1Cl)NC1CCCN(c2ncnc3[nH]ccc23)C1 (stereo not drawn) [Example 27, (N-(1-(7H-pyrrolo[2,3-d]pyrimidin-4-yl)piperidin-3-yl)-2-(2,3-dichlorophenylamino)acetamide)] | 0.1 to 0.999 µM |

Second part, the compound after the results:

| IC50 | Compound |
| --- | --- |
| > 10 µM | CN1CCN(c2cccc(NCC(=O)NC3CCCN(c4ncnc5[nH]ccc45)C3)c2)CC1 (stereo not drawn) [Example 343] |
| < 0.1 µM | CCC[C@@H](Nc1cccc(Cl)c1)C(=O)N[C@@H]1CCCN(c2ncnc3[nH]ncc23)C1 [Example 169] |
| < 0.1 µM | CC1CCCN1S(=O)(=O)c1ccccc1NCC(=O)N[C@@H]1CCCN(c2ncnc3[nH]ncc23)C1 (stereo partly drawn) [Example 189] |
| < 0.1 µM | CC[C@@H](Nc1cc(F)cc(Cl)c1)C(=O)N[C@H]1CN(c2ncnc3[nH]ncc23)CC[C@@H]1C [Example 154] |
| > 10 µM | CC(O)c1cccc(NCC(=O)NC2CCCN(c3ncnc4[nH]ccc34)C2)c1 (stereo not drawn) [Example 341] |

From patent US9029359B2, “Heteroaryl Btk inhibitors” (Biogen Idec MA, Inc., priority 2009, dated 2015)
